Assay [1] relates to Escherichia coli cefazolin-resistant bacteria. In words: survival rate with single amino acids or amino acid combination in synergy with cefazolin. The format is cell-based. As for the experimental part: Each amino acid in 2 mM compound amino acids was added alone with a corresponding concentration, and through survival rate of bacteria, it was studied improvement on sensitivity of bacteria to antibiotics when each amino acid was in synergy with cefazolin.

In assay [2] the test system is Escherichia coli cefazolin-resistant bacteria (K12-RCZO). The assay can be described thus: MIC against cefazolin. The format is cell-based. An excerpt:
(§1) Escherichia coli (E. coli) is one of the most common bacteria in clinical practice. 35 Escherichia coli strains clinically obtained were named as Y1 to Y12, Y15 to Y24, Y27, Y28, and Y30 to Y40. The minimum inhibitory concentration (MIC) of these 35 Escherichia coli strains clinically obtained against cefazolin antibiotics was detected according to the NCCLS method, at the same time, Escherichia coli sensitive bacteria K12 and cefazolin-resistant bacteria K12-RCZO were used as controls to determine the MIC.

Assay [3] relates to Escherichia coli sensitive bacteria K12. The assay can be described thus: MIC against cefazolin. The format is cell-based.
Source text: as §1

Assay [4] concerns Escherichia coli strains clinically obtained. The assay can be described thus: MIC against cefazolin (NCCLS method). The format is cell-based.
Source text: as §1

In assay [5] the test system is Escherichia coli sensitive bacteria K12. The assay can be described thus: survival rate of bacteria by plate count, compound amino acids in synergy with antibiotics. The format is cell-based. The settings on record: for survival rate of bacteria: first of 7 values, taken as no compound amino acids.
The subject of assay [6] is resistant bacteria K12-RCZO. The format is cell-based, Escherichia coli. The procedure:
Preparation of bacterial samples: monoclonal bacteria of sensitive bacteria K12 or resistant bacteria K12-RCZO were picked and inoculated in 50 mL LB liquid medium respectively. After incubation for 17 h at 37° C. and 200 rpm, bacterial cells were collected by centrifugation at 8000 rpm for 4 min; the bacterial cells were washed twice with 0.85% normal saline, suspended in 1×M9 medium, adjusted to OD600 as 0.6, and then dispensed 5 mL into test tubes for subsequent experimental research.
Each of prepared bacterial samples was divided into 4 groups: control group, group of 2 mM 5% compound amino acids added only, and group of cefazolin antibiotics added only (a concentration being 80 μg/mL for sensitive bacteria K12, and a concentration being 2 mg/mL for resistant bacteria K12-RCZO), and group of cefazolin and 2 mM compound amino acids added. Bacteria were incubated at 37° C. and 200 rpm for 6 h, and then 100 μL was taken for doubling dilution, and 10 μL of bacterial solution was taken therefrom for plate count to calculate a survival rate of bacteria; results are shown in FIG. 3.
In order to explore the relationship between compound amino acids improving sensitivity of resistant bacteria to antibiotics and antibiotic concentration, 8 cefazolin concentration gradients (0, 62.5, 125, 250, 500, 1,000, 2,000 and 4,000 μg/mL) were set up; then, 2 mM compound amino acids were added or not added, respectively, after 6 h, plate count method was used to count viable bacteria; under the same antibiotics concentration, survival rates of bacteria when compound amino acids not added (control) and after compound amino acids added were compared.

In assay [7] the test system is Bacillus subtilis. In words: survival rate, compound amino acids in synergy with cefazolin. The settings on record: cefazolin 80 μg/mL without compound amino acids, 6 h. The format is cell-based. The procedure: (§2) Other Gram-negative bacteria such as Vibrio alginolyticus, Vibrio parahaemolyticus, and Pseudomonas aeruginosa, and Gram-positive bacteria Bacillus subtilis were selected as research objects to investigate bactericidal effect of compound amino acids in synergy with cefazolin; among them, concentration of compound amino acids was 2 mM, concentration of cefazolin was 80 μg/mL, and incubation time was 6 h, a relative survival rate of bacteria was calculated.

The test system of assay [8] is Pseudomonas aeruginosa. The assay is described as above. The settings on record: cefazolin 80 μg/mL without compound amino acids, 6 h. The format is cell-based. The procedure:
as §2

The test system of assay [9] is Vibrio alginolyticus. The assay is described as above. The format is cell-based. The settings on record: cefazolin 80 μg/mL without compound amino acids, 6 h. As for the experimental part:
as §2

Assay [10] has as its system Vibrio parahaemolyticus. The assay is described as above. The settings on record: cefazolin 80 μg/mL without compound amino acids, 6 h. The format is cell-based. As for the experimental part: as §2
In assay [11] the test system is ampicillin-resistant bacteria (K12-RAMP). The assay can be described thus: survival rate of bacteria, compound amino acids in synergy with ampicillin. The format is cell-based, Escherichia coli. The settings on record: ampicillin 2000 μg/mL; second of 8 values, taken as ampicillin without compound amino acids. As for the experimental part:
Taking Escherichia coli sensitive bacteria K12 and artificially passaged ampicillin-resistant bacteria (K12-RAMP) as research objects, for the former, concentration of ampicillin was 40 μg/mL, and for the latter, concentration of ampicillin was 2000 μg/mL. It was investigated effects of 0.125, 0.5, 2.0, 8.0, 32, and 64 mM compound amino acids in synergy with antibiotics of the above concentrations on survival rates of sensitive bacteria and corresponding resistant bacteria.

The test system of assay [12] is balofloxacin-resistant bacteria (K12-RBLFX). The assay can be described thus: survival rate of bacteria, compound amino acids in synergy with balofloxacin. The settings on record: balofloxacin 25 μg/mL; second of 8 values, taken as balofloxacin without compound amino acids. The format is cell-based, Escherichia coli. As for the experimental part: Taking Escherichia coli sensitive bacteria K12 and balofloxacin-resistant artificially passaged resistant bacteria (K12-RBLFX) as research objects, for the former, concentration of balofloxacin was 0.2 μg/mL, and for the latter, concentration of balofloxacin was 25 μg/mL. It was investigated effects of compound amino acids of different concentrations in synergy with antibiotics of the above concentrations on survival rates of sensitive bacteria and corresponding resistant bacteria.

In brackets after ≈: the same amount, converted by molar mass. Read-outs that look alike come from different tables or passages of the source.

Take `N[C@@H](Cc1ccc(O)cc1)C(=O)O` [tyrosine]: the survival rate in assay [1] (amino acid alone at 5 μM in synergy with cefazolin) is 80.5%.

For `O=C(O)[C@@H]1CCCN1` [proline], the survival rate in assay [1] (amino acid alone at 126 μM in synergy with cefazolin) is recorded as 85.4%.

Turning to `N[C@@H](Cc1ccccc1)C(=O)O` [phenylalanine], the survival rate in assay [1] (amino acid alone at 106 μM in synergy with cefazolin) was determined as 98.8%.

Turning to `Cc1nnc(SCC2=C(C(=O)O)N3C(=O)[C@@H](NC(=O)Cn4cnnn4)[C@H]3SC2)s1` [cefazolin], the MIC in [2] (Escherichia coli, read-out: MIC against cefazolin) is 80 µg/mL (≈ 176 µM); in assay [3], 1.25 µg/mL (≈ 2.75 µM); in assay [4] (37% of the remaining clinical Escherichia coli resistant bacteria), above 640 µg/mL; in assay [4] (clinical strain Y1), 40 µg/mL (≈ 88 µM); in [4] (clinical strain Y3), 2.5 µg/mL (≈ 5.5 µM); in assay [4] (clinical strain Y5), 10 µg/mL (≈ 22 µM). Also, the MIC was 40 µg/mL (≈ 88 µM) in assay [4] (clinical strain Y6); 2.5 µg/mL (≈ 5.5 µM) in assay [4] (clinical strain Y7); 5 µg/mL (≈ 11 µM) in assay [4] (clinical strain Y8); 10 µg/mL (≈ 22 µM) in assay [4] (clinical strain Y11); 40 µg/mL (≈ 88 µM) in [4] (clinical strain Y12); 5 µg/mL (≈ 11 µM) in assay [4] (clinical strain Y15). The MIC in assay [4] (clinical strain Y16) amounted to 5 µg/mL (≈ 11 µM); in assay [4] (clinical strain Y17), 10 µg/mL (≈ 22 µM); in assay [4] (clinical strain Y18), 20 µg/mL (≈ 44 µM); in assay [4] (clinical strain Y19), 5 µg/mL (≈ 11 µM); in assay [4] (clinical strain Y20), 20 µg/mL (≈ 44 µM); in [4] (clinical strain Y21), 20 µg/mL (≈ 44 µM). For the same compound, the MIC came out at 5 µg/mL (≈ 11 µM) in assay [4] (clinical strain Y22); 2.5 µg/mL (≈ 5.5 µM) in assay [4] (clinical strain Y23); 20 µg/mL (≈ 44 µM) in assay [4] (clinical strain Y24); 5120 µg/mL (≈ 11300 µM) in assay [4] (clinical strain Y28); 5120 µg/mL (≈ 11300 µM) in assay [4] (clinical strain Y32); 5120 µg/mL (≈ 11300 µM) in assay [4] (clinical strain Y36). For the same compound, the MIC in assay [4] (clinical strain Y40) turned out to be 20 µg/mL (≈ 44 µM). Also, the “MIC relative to that of the starting strain” value in assay [2] (K12-RCZO vs K12) turned out to be 64 times. The survival rate in assay [5] (cefazolin 80 μg/mL, compound amino acids 0 mM, 6 h) is on record as 89.6%; in [6] (cefazolin 1,000 μg/mL, compound amino acids 0 mM, 6 h), 92.6%; in assay [7], 58.0%; in assay [8] it was 85.9%; in assay [9], 62.1%; in [10], 79.3%. The “survival rate of bacteria” value in assay [6] (as printed in b79: K12-RCZO, compound amino acids 0 mM, 1000 μg/mL cefazolin (results of FIG. 4)) turned out to be 89.6%; in assay [6] (cefazolin 62.5 μg/mL, compound amino acids not added, 6 h), 87.5%; in assay [6] (cefazolin 125 μg/mL, compound amino acids not added, 6 h), 96.9%; in assay [6] (cefazolin 250 μg/mL, compound amino acids not added, 6 h) it was 83.3%; in assay [6] (cefazolin 500 μg/mL, compound amino acids not added, 6 h), 78.6%; in assay [6] (cefazolin 1,000 μg/mL, compound amino acids not added, 6 h), 83.3%. The “survival rate of bacteria” value in assay [6] (cefazolin 2,000 μg/mL, compound amino acids not added, 6 h) is reported as 84.4%; in assay [6] (cefazolin 4,000 μg/mL, compound amino acids not added, 6 h), 69.8%; in [1] (M9 control group with antibiotics added (1 mg/mL cefazolin), 6 h), 45.9%; in assay [1] (only cefazolin is added), 85.04%.

For the compound `NCC(=O)O` [glycine], in assay [1] (amino acid alone at 233 μM in synergy with cefazolin), the survival rate turned out to be 71.4%.

As to `CO/N=C(\C(=O)N[C@@H]1C(=O)N2C(C(=O)O)=C(CSC(=O)c3ccco3)CS[C@H]12)c1csc(N)n1` [ceftiofur], the “survival rate of bacteria” value in assay [5] (ceftiofur 200 μg/mL, 6 h) amounted to 61.9%.

Take `N[C@@H](Cc1c[nH]c2ccccc12)C(=O)O` [tryptophan]: in assay [1] (amino acid alone at 20 μM in synergy with cefazolin), the survival rate is reported as 67.4%.

Turning to `N[C@@H](CSSC[C@H](N)C(=O)O)C(=O)O` [cystine], in assay [1] (amino acid alone at 4 μM in synergy with cefazolin), the survival rate was found to be 94.1%.

Turning to `N[C@@H](Cc1c[nH]cn1)C(=O)O` [histidine], the survival rate in assay [1] (amino acid alone at 96 μM in synergy with cefazolin) is recorded as 97.6%.

As for `CC(C)[C@H](N)C(=O)O` [valine], the survival rate in assay [1] (amino acid alone at 136 μM in synergy with cefazolin) came out at 78.8%.

Take `CC1(C)S[C@@H]2[C@H](NC(=O)[C@H](N)c3ccccc3)C(=O)N2[C@H]1C(=O)O` [ampicillin]: the survival rate was determined as 86.7% in assay [5] (ampicillin 40 μg/mL, second of 8 values, taken as ampicillin without compound amino acids) and 87.2% in assay [11].

Turning to `CC(C)C[C@H](N)C(=O)O` [leucine], the survival rate in assay [1] (amino acid alone at 129 μM in synergy with cefazolin) is reported as 75.7%.

Regarding `CO/N=C(\C(=O)N[C@@H]1C(=O)N2C(C(=O)O)=C(CSc3nc(=O)c(=O)[nH]n3C)CS[C@H]12)c1csc(N)n1` [ceftriaxone], the “survival rate of bacteria” value in [5] (ceftriaxone 10 μg/mL, 6 h) turned out to be 73.1%.

Regarding `C[C@H](N)C(=O)O` [alanine], the survival rate in assay [1] (amino acid alone at 404 μM in synergy with cefazolin) is reported as 73.6%.

Consider `N=C(N)NCCC[C@H](N)C(=O)O` [arginine], for which the survival rate in assay [1] (amino acid alone at 140 μM in synergy with cefazolin) turned out to be 97.3%.

Take `N[C@@H](CO)C(=O)O` [serine]: the survival rate in [1] (amino acid alone at 47 μM in synergy with cefazolin) came out at 67.9%.

Take `CNC1CCCN(c2c(F)cc3c(=O)c(C(=O)O)cn(C4CC4)c3c2OC)C1` (centres unmarked) [balofloxacin]: the survival rate in assay [12] came to 90.2%.

In the case of `CSCC[C@H](N)C(=O)O` [methionine], in [1] (amino acid alone at 83 μM in synergy with cefazolin), the survival rate was determined as 91.5%.

Take `N[C@@H](CC(=O)O)C(=O)O` [aspartate]: the survival rate in assay [1] (amino acid alone at 56 μM in synergy with cefazolin) is on record as 94.5%.

For the compound `CC[C@H](C)[C@H](N)C(=O)O` [isoleucine], the survival rate in assay [1] (amino acid alone at 95 μM in synergy with cefazolin) came out at 69.6%.

In the case of `N[C@@H](CCC(=O)O)C(=O)O` [glutamic acid], the survival rate in assay [1] (amino acid alone at 85 μM in synergy with cefazolin) amounted to 94.5%.

With `C[C@@H](O)[C@H](N)C(=O)O` [threonine], the survival rate in assay [1] (amino acid alone at 105 μM in synergy with cefazolin) was determined as 59.4%.

As to `CC(=O)O.NCCCC[C@H](N)C(=O)O` [lysine acetate], the survival rate in assay [1] (amino acid alone at 133 μM in synergy with cefazolin) was 68.6%.

These data come from patent publication US12427129B2, “Application of compound amino acids in preparation of medicament for improving sensitivity of bacteria to antibiotics” (SUN YAT-SEN UNIVERSITY, priority 2020, dated 2025).
